Activity calls are given as the source filed them. The rule behind the calls is not given here.
System: 697B B-cell line, NF-kB luciferase reporter luminescence
Experiment: NF-kB reporter inhibition in B cells, dose response, selectivity assay for T-cell antigen receptor NF-kB inhibitors, 697B cells, luminescence (AID 489033)

SMILES | IC50
CCOC(=O)c1[nH]c(C)c(C(=O)Nc2ccc(C)cc2C)c1C | 42.3 µM (inactive)
C[C@]12CC[C@H](O)C[C@H]1CC[C@@H]1[C@@H]2C[C@@H](O)[C@]2(C)[C@@H](C3=CC(=O)OC3)CC[C@]12O | 1.6 µM
CCCCCc1ccc(OCCCC[n+]2ccc(C)cc2)c(CCCCC)c1 | 4.21 µM
Cc1cc(NC(=O)CSc2nc3ccccc3c(=O)n2C2CCCC2)no1 | > 80 µM (inactive)
c1ccc(-c2noc(-c3ccc4ccccc4c3)n2)nc1 | 0.73 µM
COc1ccc(/C=c2/sc3n(c2=O)C(c2ccccc2OC)C2=C(N=3)c3ccccc3CC2)cc1O (stereo not given) | > 80 µM (inactive)
Oc1ccc(Nc2nc3ccccc3nc2Nc2ccc(O)cc2)cc1 | 3.73 µM
Oc1ccc2ccccc2c1N=Nc1ccccn1 | 3.22 µM
CCCSc1nnc(Sc2nnnn2-c2ccccc2)s1 | 7 µM
CCCCC(=O)NC(c1ccc(N(CC)CC)cc1)c1ccc2cccnc2c1O (stereo not given) | > 80 µM (inactive)
O=C(Nc1ccc(S(=O)(=O)N2CCCC2)cc1)c1ccc(CN2CCc3ccccc3C2)cc1 | > 80 µM (inactive)
COC(=O)Cc1[nH]n(-c2nc3ccccc3s2)c(=O)c1C(C)=Nc1ccc(OC)cc1 | 4.93 µM
CC1=C([N+](=O)[O-])C(c2ccccc2)C2=C(N1)c1ccccc1C2=O (stereo not given) | > 80 µM (inactive)
C[C@]12CC[C@H]3[C@@H](CC[C@]4(O)C[C@@H](O)CC[C@]34C=O)[C@@]1(O)CC[C@@H]2C1=CC(=O)OC1 | 1.13 µM
COc1cccc(C2CC(=O)Nc3cc4c(cc32)CCC4)c1 (stereo not given) | > 80 µM (inactive)
CCS(=O)(=O)c1ncc(Cl)c(C(=O)Nc2ccc(S(=O)(=O)N(C)c3ccccc3)cc2)n1 | 1.42 µM
Cc1ccc2[nH]c3c(c2c1)CCCC3NC(=O)CCl (stereo not given) | 1.67 µM
CC(=O)Nc1ccc(S(=O)(=O)N2c3ccccc3C(C)=CC2(C)C)cc1 | > 80 µM (inactive)
COc1ccc(C(C(=O)NC2CCCCC2)N(C(=O)CCl)c2ccc(C)cc2)cc1 (stereo not given) | < 0.16 µM
O=C(Nc1ccc(S(=O)(=O)N2CCCCC2)cc1)c1ccc(CN2CCOCC2)cc1 | 51.2 µM (inactive)
CN[C@H]1CCc2cc(OC)c(OC)c(OC)c2-c2ccc(OC)c(=O)cc21 | > 80 µM (inactive)
COc1ccc([C@H]2CC(=O)C=C(c3ccc(OC)cc3OC)C2)cc1 | > 80 µM (inactive)
CCN(CC)c1ccc(/C=C/c2ccc3ccc(OC)cc3[n+]2CC)cc1 | 2.84 µM
CC(=O)O[C@H]1C(=O)[C@@]2(C)C([C@H](OC(=O)c3ccccc3)[C@]3(O)C[C@H](OC(=O)[C@H](O)[C@@H](NC(=O)Cc4ccccc4)c4ccccc4)C(C)=C1C3(C)C)[C@]1(OC(C)=O)CO[C@@H]1C[C@@H]2O (stereo not given in full) | > 80 µM (inactive)

SMILES | IC50
COc1cc(NC(=O)N2CCNC2=O)cc(C(=O)Nc2cccc(C(F)(F)F)c2)c1 | < 0.16 µM
CCN1/C(=C/c2ccc3cc(C)ccc3[n+]2CC)Sc2ccc3sccc3c21 | 9.39 µM
O=C(c1cc(-c2ccncc2)nc2c(Cl)cccc12)N1CCN(c2ccccc2F)CC1 | > 80 µM (inactive)
CN(C)S(=O)(=O)c1ccc(Nc2nc(C3CC3)nc3c2nnn3Cc2ccccc2Cl)cc1 | > 80 µM (inactive)
COC(=O)c1nn(-c2ccc3c(c2)CCN3C(C)=O)cc1O | 5.08 µM
COc1cccc(/C=N/Nc2ncnc3c2ncn3Cc2ccccc2)c1O | 23.4 µM (inactive)
Cn1nc(-c2ccccn2)nc2c(=O)n(C)c(=O)nc1-2 | 4.12 µM
COc1cc(-c2noc(C)c2/C=C/c2ccc(OC(C)=O)cc2)cc(OC)c1OC | > 80 µM (inactive)
CN(C)c1ccc(-[n+]2c(-c3ccccc3)cc(-c3ccccc3)cc2-c2ccccc2)cc1 | 0.79 µM
COc1cc(NS(C)(=O)=O)ccc1Nc1c2ccccc2nc2ccccc12 | 15.8 µM
O=S(=O)(c1cc(F)ccc1F)N1CCN(c2ncnc3ccccc23)CC1 | 74.1 µM (inactive)
Cc1ccc(-c2nc(-c3ccccn3)no2)cc1 | 3.78 µM
Cc1sc2ncnc(NC3CCN(Cc4ccccc4)CC3)c2c1C | 2.51 µM
Cc1c(C(=O)OCc2ccccc2)[nH]c2c1C(=O)CC(c1ccco1)C2 (stereo not given) | > 80 µM (inactive)
C=C(C)[C@@]12OC3(c4ccccc4)O[C@@H]1C1[C@@H]4O[C@]4(CO)[C@@H](O)[C@]4(O)C(=O)C(C)=C[C@H]4[C@@]1(O3)[C@H](C)[C@H]2OC(=O)/C=C/C=C/c1ccccc1 (stereo not given in full) | 38.9 µM (inactive)
CCOC(=O)C(C)Oc1cccc2c(=O)n(CC(=O)NCc3ccc4c(c3)OCO4)ccc12 (stereo not given) | > 80 µM (inactive)
CCOC(=O)N/N=C/c1c(C)nn(-c2cccc(C(F)(F)F)c2)c1Cl | > 80 µM (inactive)
COC(=O)c1ccc(Oc2cc(C)nc(SC)n2)cc1 | > 80 µM (inactive)
Cc1c(C(=O)OC2CCCC2)[nH]c2c1C(=O)CC(c1ccco1)C2 (stereo not given) | > 80 µM (inactive)
COc1cc(C(=O)N2CCN(c3cc(Cl)ccc3Cl)CC2)cc(OC)c1OC | > 80 µM (inactive)
CC(=O)N(C)C1=C(N2CCOCC2)C(=O)c2ccccc2C1=O | 17.9 µM
O=C(Nc1cccc(C(F)(F)F)c1)c1sc(Cl)nc1C(F)(F)F | 1.37 µM
CC(=O)NC(c1ccc(C(C)C)cc1)c1ccc2cccnc2c1O (stereo not given) | > 80 µM (inactive)
COc1cc(C2=NOC(C(=O)NCc3ccc(F)cc3)C2)cc(OC)c1OC (stereo not given) | > 80 µM (inactive)

SMILES | IC50
CCc1cc2c(=O)nc3n(c2s1)Cc1ccccc1/C3=C(/O)c1cccc([N+](=O)[O-])c1 | > 80 µM (inactive)
C=C1C(=O)C=C2CN(C(=O)c3ccccc3)[C@@](Cc3ccc(F)cc3)(C(=O)OC)[C@@H]12 | 1.01 µM
COc1cc(C2C(C#N)=C(N)Oc3cc4c(cc32)OCO4)cc(OC)c1OC (stereo not given) | > 80 µM (inactive)
CC(Oc1ccc(Cl)cc1Cl)C(=O)Nc1ccncc1 (stereo not given) | > 80 µM (inactive)
O=S(=O)(Nc1ccc(F)cc1Cl)c1ccc(-c2cnc(C3CC3)o2)cc1 | 73.4 µM (inactive)
COc1ccc(-c2c(C#N)c(N)nc3c2CCc2ccccc2-3)cc1OC | 54.4 µM (inactive)
N=c1ccn(CC(=O)c2ccc(-c3ccccc3)cc2)cc1 | 19.2 µM
CCCCCCCCCCCCCCCC[n+]1cccc(C(=O)N(CC)CC)c1 | 3.3 µM
O=C(Nc1nc2ccc(S(=O)(=O)N3CCCC3)cc2s1)C1CCCCC1 | > 80 µM (inactive)
Cc1ccc2nc(C)c(CN3CCN(c4ccc([N+](=O)[O-])cc4Cl)CC3)n2c1 | > 80 µM (inactive)
COc1cc([C@@H]2c3cc4c(cc3[C@H](O)[C@H]3COC(=O)[C@H]23)OCO4)cc(OC)c1OC | > 80 µM (inactive)
CCCOC(=O)c1[nH]c2c(c1C)C(=O)CC(c1cccs1)C2 (stereo not given) | > 80 µM (inactive)
COc1ccc(NS(=O)(=O)c2cc(-c3cnc(C4CC4)o3)ccc2C)cc1 | > 80 µM (inactive)
Cc1ccc(NS(=O)(=O)c2ccc(-c3cnc(C4CC4)o3)cc2)c(C)c1 | > 80 µM (inactive)
Cc1ccsc1/C=N/NC(=O)c1cc(-c2ccncc2)nc2ccccc12 | 2.38 µM
CCOc1ccccc1C(=O)Nc1ccc2nc(N3CCN(c4ncccn4)CC3)cc(C)c2c1 | 4.69 µM
Cc1ccc(C(=O)O/N=C(\N)c2ccccn2)c(C)c1 | 0.85 µM
CCn1cc(C(=O)NC2CCCc3c2cnn3-c2cccc(C)c2C)cn1 (stereo not given) | > 80 µM (inactive)
COc1ccc(NC(=O)/C(Cl)=C(/Cl)S(=O)Cc2ccccc2)cn1 (stereo not given) | 0.6 µM
CC1C/C(=C/c2ccncc2)C(=O)/C(=C/c2ccncc2)C1 (stereo not given) | 8.39 µM
CCCCC(=O)NC(c1ccc(Cl)cc1Cl)c1ccc2cccnc2c1O (stereo not given) | > 80 µM (inactive)
Cc1cc(-n2c(C)cc(C(=O)CSc3ncnc4ccccc34)c2C)no1 | 67 µM (inactive)
COc1cccc2sc(Nc3nnc(-c4ccccc4Cl)o3)nc12 | 3.64 µM
COc1ccc(OC)c2c1C(=O)C(Cl)=C(Cl)C2=O | 4.03 µM

SMILES | IC50
CCCCCC(=O)N[C@@H](c1ccccc1)[C@@H](O)C(=O)O[C@H]1C[C@@]2(O)[C@@H](OC(=O)c3ccccc3)C3[C@](C)(C(=O)[C@H](OC(C)=O)C(=C1C)C2(C)C)[C@@H](O)C[C@H]1OC[C@@]31OC(C)=O (stereo not given in full) | > 80 µM (inactive)
Cc1noc(C)c1COc1ccc(CC(=O)NCc2ccccc2)cc1 | > 80 µM (inactive)
Cn1cc(C(=O)N/N=C/c2c(O)ccc3ccccc23)ccc1=O | > 80 µM (inactive)
COc1ccccc1N1CCN(C(=O)C2c3ccccc3Oc3ccccc32)CC1 | > 80 µM (inactive)
COC(=O)c1cnc(Oc2ccc(NC(=O)NC(=O)c3c(F)cccc3Cl)cc2)cc1C(F)(F)F | > 80 µM (inactive)
COc1ccc(S(=O)(=O)Nc2cccc(-c3ccc4nncn4n3)c2)cc1F | > 80 µM (inactive)
Cc1cccc(N(C)S(=O)(=O)c2ccc(-c3cnc(C4CC4)o3)cc2)c1 | > 80 µM (inactive)
CCCCCCCCCCCCCCCC[n+]1ccc(C(N)=O)cc1 | 8.82 µM
CCCC(=O)Nc1nc2ccc(S(=O)(=O)N3CCCCC3)cc2s1 | > 80 µM (inactive)
O=C(Cc1ccc(-c2ccccc2)cc1)NCc1ccccc1 | > 80 µM (inactive)
CC(C)(C)c1nnc(N/N=C/c2ccccc2O)n(N)c1=O | 52.8 µM (inactive)
CCO[C@@H]1OC(C(=O)NCc2nc3ccccc3[nH]2)=C[C@H](C(C)(C)C)[C@H]1CCCO | > 80 µM (inactive)
CCOc1ccc(S(=O)(=O)NCc2ccccn2)cc1NC(=O)c1ccccc1 | > 80 µM (inactive)
O=C(N/N=C/c1c(O)ccc2ccccc12)c1cccc(C(F)(F)F)c1 | 18.6 µM
Cc1cc(C)cc(NS(=O)(=O)c2ccc(-c3cnc(C4CC4)o3)cc2)c1 | 53.1 µM (inactive)
CCOC(=O)c1[nH]c2c(c1C)C(=O)CC(c1ccco1)C2 (stereo not given) | > 80 µM (inactive)
O=C(N/N=C(\c1ccccc1)c1cccnc1)c1cccc(F)c1 | 3.1 µM
Cc1ccc(NS(=O)(=O)c2ccc(C(=O)NC3CCN(Cc4ccccc4)CC3)cc2)cc1 | 45.5 µM (inactive)
CCC(=O)NC(c1ccc(C)cc1)c1ccc2cccnc2c1O (stereo not given) | > 80 µM (inactive)
CCOc1ccccc1NC(=O)CN(c1ccc(OC)cc1)S(=O)(=O)c1c(C)noc1C | > 80 µM (inactive)
COc1ccc(-[n+]2c(-c3ccccc3)cc(-c3ccc(C)cc3)cc2-c2ccccc2)cc1 | 8.23 µM
COC(=O)C1CN(C#N)N(c2ccc(Cl)cc2)C12c1ccccc1-c1ccccc12 (stereo not given) | 3.58 µM
CC(C)(C)c1cc(C=C(C#N)C#N)cc(C(C)(C)C)c1O | > 80 µM (inactive)

Source: PubChem BioAssay AID489033 (Sanford-Burnham Center for Chemical Genomics, 2010)
